Measurements published in patent US20250051275A1, “PYRROLE DERIVATIVE OR PHARMACEUTICALLY OR SITOLOGICALLY ACCEPTABLE SALTS THEREOF, AND COMPOSITION FOR PREVENTION, AMELIORATION OR TREATMENT OF GASTROINTESTINAL DISORDERS COMPRISING SAME AS ACTIVE INGREDIENT” (HANA PHARM CO., LTD., priority 2021, published 2025).
Read-outs that look alike come from different tables or passages of the source.

Columns and labels:
[1] = biological target: proton pump (H+/K+-ATPase) (Sus scrofa (Pig), UniProt P19156); assay: Inhibitory activity on proton pump (H+/K+-ATPase) activity; assay type: biochemical; details: porcine gastric mucosal microsomes, 5 mM KCl, pH 6.4
Procedure: The compounds indicated in the above examples were tested for their inhibitory activity on proton pump (H+/K+-ATPase) activity as follows by applying the method disclosed in the literature. According to the methods of Nobuyuki Takahashi and Yukinori Take [J Pharmacol Exp Ther. 2018 February; 364(2):275-286], the gastric mucosal microsome fraction was isolated from the porcine stomach. The stomach isolated from the pig was washed first with tap water, only the fundus was cut, and then washed (a second time) with cold PBS. The gastric mucosa was separated by scraping, homogenized with 250 mM sucrose solution, and centrifuged at 20,000 g at 4° C. for 30 minutes. Only the supernatant was centrifuged at 115,000 g at 4° C. for 30 minutes, and the precipitate was suspended in 250 mM sucrose solution, added to cover with 7% Ficoll solution, and centrifuged at 135,000 g at 4° C. for 60 minutes. The microsome fraction formed at the interface was recovered and suspended in 250 mM sucrose solution, and centrifuged at 135,000 g, 4° C. for 60 minutes, and the precipitate was dissolved in 0.9% NaCl. The isolated gastric mucosal microsome fraction was quantified by using the Bicinchoninic Acid (BCA) kit (Thermo).
60 μl of enzyme reaction solution (a test compound at a given concentration, […] of gastric mucosal microsomes, 3 mM of MgSO4, 5 mM of KCl, 40 mM of Tris-HCl pH 6.4, and 0.5 mM of adenosine triphosphate) was added to each well of a 96-well plate and reacted at 37° C. for 60 minutes, and 30 μl of 10% SIDS was added to stop the enzyme reaction. 200 μl of detection solution (in which 10% L-ascorbic acid with pH 5.0 was mixed with 35 mM of ammonium molybdate tetrahydrate/15 mM of zinc acetate with pH 5.0 at the ratio of 4:1) was added and reacted at 37° C. for 30 minutes, and the absorbance value was measured at 750 nm by using a microplate reader (MULTISKAN GO, Thermo). The inhibition rate of proton pump activity was expressed as I050, which is 50% inhibition of enzyme activity, by using GraphPad Prism 5. In Table 1 below, an I050 value of 100 nM or less is indicated by +++, an I050 value of 101 to 200 nM is indicated by ++, and an I050 value of above 200 nM is indicated by +.

[2] = Pharmacokinetic profile in beagles, single oral dose; assay type: in vivo, beagle dogs; details: male, dog, plasma, beagle, mean n=3
Procedure: A total of 18 male beagle dogs (Marshall Beagle, Beijing) with an average weight of 9 to 11 kg were obtained, acclimatized, and distributed into a total of 6 groups, 3 dogs per test group. During the entire experiment, all beagle dogs were supplied with standardized solid food and water. The breeding room was kept under controlled and monitored conditions, while maintaining a temperature of 18° C. to 26° C., a humidity of 40% to 70%, and a light-dark cycle of 12 hours-12 hours.
The test group consisted of beagle dogs that were orally administered the vehicle as the vehicle group, beagle dogs that were orally administered control drug 1 (vonoprazan) as the comparison group, and administration group was beagle dogs orally administered with Example 7.
Blood samples were obtained from peripheral veins at 30 minutes, 1 hour, 2.5 hours, 4.5 hours, 7.5 hours, 25.5 hours, and 49.5 hours after drug administration, respectively. Blood samples were centrifuged (2 to […], 3,200 g, 10 minutes) to obtain plasma. The amount of the administered compound into the plasma samples was quantified by using LC-MS/MS. Pharmacokinetic parameters were obtained by using a non-compartmental model in Phoenix WinNonlin 6.3 software. ‘AUC0-last’ indicates the area under the time curve, ‘Cmax’ indicates the highest plasma concentration, ‘ Tmax’ indicates the time to reach the highest plasma concentration, and ‘T1/2’ indicates the half-life.

[3] = Oral bioavailability in beagle dogs; assay type: in vivo; details: dog, plasma; for AUC(0-t) / half-life / Cmax / Tmax: mean n=3; for bioavailability: po, read-out: BA (bioavailability)
Procedure: To evaluate oral bioavailability, Example 7 was administered intravenously or orally to beagle dogs.
For the intravenous administration group, blood samples were obtained from peripheral veins 1 minute, 5 minutes, 15 minutes, 30 minutes, 1 hour, 2 hours, 4 hours, 8 hours, and 24 hours after drug administration. For the oral administration group, blood samples were obtained from peripheral veins 15 minutes, 30 minutes, 1 hour, 2 hours, 4 hours, 6 hours, 8 hours, 12 hours, and 24 hours after drug administration. Blood samples collected at different times were treated with EDTA and centrifuged (2 to 8° C., 3,200 g, 10 minutes) to separate plasma.
The amount of administered compound into the plasma sample was quantified by using LC-MS/MS. Pharmacokinetic parameters were obtained by using a non-compartmental model in Phoenix WinNonlin 6.3 software.
‘AUC0-last’ indicates the area under the time curve, ‘Cmax’ indicates the highest plasma concentration, ‘Tmax’ indicates the time to reach the highest plasma concentration, ‘T1/2’ indicates the half-life, and ‘BA’ indicates the bioavailability.

[4] = Storage stability (related substance identification test); assay type: physicochemical; details: for storage stability: stored at −2 to 8° C., in % (unit assumed)
Description: An attempt was made to evaluate the storage stability over time of the compound of Example 7 of the present invention and the compound of Comparative Example 1 (which is the deuterium-unsubstituted form of the compound of Example 7) depending on the presence of deuterium substitution.

proton pump (H+/K+-ATPase), sequence (P19156 2-1034): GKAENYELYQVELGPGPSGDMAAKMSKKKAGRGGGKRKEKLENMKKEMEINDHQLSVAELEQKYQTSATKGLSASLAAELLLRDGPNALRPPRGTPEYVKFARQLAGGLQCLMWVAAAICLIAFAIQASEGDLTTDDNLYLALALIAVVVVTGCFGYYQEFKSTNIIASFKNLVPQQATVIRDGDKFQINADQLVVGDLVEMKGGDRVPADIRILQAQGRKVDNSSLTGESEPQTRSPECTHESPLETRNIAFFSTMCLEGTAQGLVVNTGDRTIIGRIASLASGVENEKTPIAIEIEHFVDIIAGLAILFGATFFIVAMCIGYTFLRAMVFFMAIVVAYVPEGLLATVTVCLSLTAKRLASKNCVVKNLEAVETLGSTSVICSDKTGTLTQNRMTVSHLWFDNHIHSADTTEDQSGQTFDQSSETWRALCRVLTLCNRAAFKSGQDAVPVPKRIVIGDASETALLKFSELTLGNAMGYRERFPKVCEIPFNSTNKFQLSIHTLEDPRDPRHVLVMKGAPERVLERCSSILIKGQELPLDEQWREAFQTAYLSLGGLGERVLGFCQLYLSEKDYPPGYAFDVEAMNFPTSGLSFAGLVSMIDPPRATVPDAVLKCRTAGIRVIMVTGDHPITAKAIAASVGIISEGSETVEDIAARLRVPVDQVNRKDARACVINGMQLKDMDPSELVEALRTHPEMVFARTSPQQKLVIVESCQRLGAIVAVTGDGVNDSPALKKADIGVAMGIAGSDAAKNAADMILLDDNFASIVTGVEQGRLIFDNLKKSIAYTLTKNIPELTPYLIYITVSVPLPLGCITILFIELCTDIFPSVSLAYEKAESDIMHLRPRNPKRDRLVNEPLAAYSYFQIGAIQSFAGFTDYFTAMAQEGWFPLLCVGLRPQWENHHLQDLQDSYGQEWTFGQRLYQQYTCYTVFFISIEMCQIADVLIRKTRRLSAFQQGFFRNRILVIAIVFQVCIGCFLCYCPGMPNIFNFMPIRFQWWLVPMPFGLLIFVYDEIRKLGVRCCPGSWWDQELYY
proton pump (H+/K+-ATPase), sequence (P18434 whole entry partner): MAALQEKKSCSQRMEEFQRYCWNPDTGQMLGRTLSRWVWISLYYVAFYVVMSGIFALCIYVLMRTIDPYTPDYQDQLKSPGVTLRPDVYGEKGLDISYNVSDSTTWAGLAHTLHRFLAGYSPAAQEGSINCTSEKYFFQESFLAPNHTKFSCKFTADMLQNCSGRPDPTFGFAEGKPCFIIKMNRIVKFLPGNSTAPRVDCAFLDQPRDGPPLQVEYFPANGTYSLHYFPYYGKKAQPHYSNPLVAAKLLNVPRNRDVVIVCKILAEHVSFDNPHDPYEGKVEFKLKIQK

[2H]C([2H])([2H])NCc1cc(-c2ccccc2F)n(S(=O)(=O)c2ccc(F)cc2)c1 [Example 7, N-((5-(2-fluorophenyl)-1-((4-fluorophenyl)sulfonyl)-1H-pyrrol-3-yl)methyl)methan-d3-amine]
IC50 ([1]; read-out: Proton pump inhibitory activity (IC50)): 25 nM
IC50 ([1]; read-out: Proton pump inhibitory activity (IC50, nM), class symbol): ≤ 100 nM
AUC(0-t) ([2]; oral single dose 0.1 mg/kg): 99.4 ng·h/mL
Cmax ([2]; oral single dose 0.1 mg/kg): 32.3 ng/mL
Tmax ([2]; oral single dose 0.1 mg/kg): 0.833 h
half-life ([2]; oral single dose 0.1 mg/kg): 1.67 h
AUC(0-t) ([2]; oral single dose 0.3 mg/kg): 808 ng·h/mL
Cmax ([2]; oral single dose 0.3 mg/kg): 165 ng/mL
Tmax ([2]; oral single dose 0.3 mg/kg): 1 h
half-life ([2]; oral single dose 0.3 mg/kg): 2.93 h
AUC(0-t) ([2]; oral single dose 1 mg/kg): 2890 ng·h/mL
Cmax ([2]; oral single dose 1 mg/kg): 397 ng/mL
Tmax ([2]; oral single dose 1 mg/kg): 1 h
half-life ([2]; oral single dose 1 mg/kg): 3.03 h
AUC(0-t) ([2]; oral single dose 3 mg/kg): 19200 ng·h/mL
Cmax ([2]; oral single dose 3 mg/kg): 1430 ng/mL
Tmax ([2]; oral single dose 3 mg/kg): 2.17 h
half-life ([2]; oral single dose 3 mg/kg): 4.29 h
AUC(0-t) ([3]; intravenous 0.2 mg/kg): 423 ng·h/mL
half-life ([3]; intravenous 0.2 mg/kg): 3.57 h
AUC(0-t) ([3]; oral 2 mg/kg (1 mg/ml)): 6940 ng·h/mL
Cmax ([3]; oral 2 mg/kg (1 mg/ml)): 632 ng/mL
Tmax ([3]; oral 2 mg/kg (1 mg/ml)): 1.53 h
half-life ([3]; oral 2 mg/kg (1 mg/ml)): 5.55 h
AUC(0-t) ([3]; oral 6 mg/kg (3 mg/ml)): 15100 ng·h/mL
Cmax ([3]; oral 6 mg/kg (3 mg/ml)): 1120 ng/mL
Tmax ([3]; oral 6 mg/kg (3 mg/ml)): 3.67 h
half-life ([3]; oral 6 mg/kg (3 mg/ml)): 7.49 h
AUC(0-t) ([3]; oral 20 mg/kg (10 mg/ml)): 49300 ng·h/mL
Cmax ([3]; oral 20 mg/kg (10 mg/ml)): 3350 ng/mL
Tmax ([3]; oral 20 mg/kg (10 mg/ml)): 3.33 h
half-life ([3]; oral 20 mg/kg (10 mg/ml)): 18.3 h
bioavailability ([3]; 2 mg/kg, oral 2 mg/kg (1 mg/ml)): ≥ 100%
bioavailability ([3]; 6 mg/kg, oral 6 mg/kg (3 mg/ml)): ≥ 100%
bioavailability ([3]; 20 mg/kg, oral 20 mg/kg (10 mg/ml)): ≥ 100%
storage stability, Results ([4]; stored at −2 to 8° C. for 3 months): Stable
storage stability ([4]; 1st week): 98.33
storage stability ([4]; 2nd week): 98.11
storage stability ([4]; 3 months): 98.9
storage stability ([4]; 3rd week): 98.11
storage stability ([4]; 4th week): 98.20
storage stability ([4]; Initial): 98.38
